Assay results taken from paper PMC9143943, “Novel Tyrosine Kinase Inhibitors to Target Chronic Myeloid Leukemia” (Molecules, 2022).
“Also recorded” adds a separate entry of the source. Where two headings read alike, the source gives them in different places.

Legend:
[1] = molecular target: BCR-ABL kinase (Homo sapiens, UniProt P00519); experiment: FRET-based Z'-Lyte kinase assay
Method: Novel compounds were tested to investigate their ability to inhibit both BCR-ABL TK and HO-1.

[2] = molecular target: T1, HO-1 (Rattus norvegicus, UniProt P06762); experiment: HO-1 enzymatic activity in microsomal fraction of rat spleen (bilirubin formation); type: biochemical
T1 construct: This microsomal preparation represents the most native (i.e., closest to in vivo) form of HO-1; from tissue; host or cells: rat spleen microsomes (male Sprague-Dawley rats)
T1 sequence (P06762 1-289): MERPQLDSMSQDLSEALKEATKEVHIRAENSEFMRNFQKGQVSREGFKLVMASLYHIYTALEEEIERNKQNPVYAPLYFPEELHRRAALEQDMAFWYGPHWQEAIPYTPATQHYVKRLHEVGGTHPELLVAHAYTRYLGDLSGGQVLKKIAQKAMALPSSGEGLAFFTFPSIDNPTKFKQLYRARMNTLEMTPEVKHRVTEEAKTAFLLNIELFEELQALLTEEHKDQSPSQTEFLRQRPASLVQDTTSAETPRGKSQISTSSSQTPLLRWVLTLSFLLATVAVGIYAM
Method: HO-1 activity was measured in microsomal fractions of rat spleen obtained as described in the experimental section. The activity was determined by measuring the bilirubin formation using the difference in absorbance at 464–530 nm. HO-1 inhibitors LS/0 and LS1/71 were used as reference compounds. […] Nevertheless, some observed differences in the results among the tested compounds allow us to discuss SAR as follows. HO-1 inhibitory activity mainly depends on the position of the oxybutylimidazole moiety and only to a lesser extent on the R substituent on the benzamide ring.
Since HO-1 protein is abundant in the rat spleen as well documented, rat spleen microsomal fraction prepared by differential centrifugation was used as source of the HO-1 protein. This microsomal preparation represents the most native (i.e., closest to in vivo) form of HO-1. Spleen microsomal fractions were obtained according to Ryter et al.. The experiments reported in the present paper complied with current Italian law and met the guidelines of the Institutional Animal Care and Use Committee of Ministry of Health (Directorate General for Animal Health and Veterinary Medicines, Italy) “Dosing of enzymatic activities in rat microsomes” (2018–2022), project code 02769.N.VLY. Male Sprague–Dawley albino rats (150 g body weight and age 45 d) used in our experimental conditions to obtain spleen microsomal fraction had free access to water and were kept at room temperature with a natural photo-period (12 h light–12 h dark cycle). To obtain a homogenate (15%, w/v) of spleens, each rat was sacrificed, and its spleen was excised and weighed. Spleens pooled from five rats were homogenized in 50 mM Tris buffer, pH 7.4, containing 0.25 M sucrose, using a Potter–Elvehjem homogenizing system with a Teflon pestle. The microsomal fraction of rat spleen homogenate was obtained by differential centrifugation: first centrifugation at 10,000× g for 20 min at 4 °C and a second centrifugation of the supernatant at 100,000× g for 60 min at 4 °C. The 100,000× g pellet (microsomes) was resuspended in 100 mM potassium phosphate buffer, pH 7.8, containing 2 mM MgCl2. The rat spleen fraction was divided into aliquots and stored at −80 °C for up to 2 months, and then its protein concentration was measured.
Biliverdin reductase was obtained by using rat liver cytosol. Three volumes of a solution 1.15% KCl w/v and Tris buffer 20 mM, pH 7.8, were used to homogenize on ice liver tissue. The 10,000× g supernatant was obtained by differential centrifugation: first centrifugation at 10,000× g for 20 min at 4 °C and a second centrifugation at […] at 4 °C to sediment the microsomes. The 10,000× g supernatant was stored in small amounts at −80 °C, and then its protein concentration was measured.
The HO-1 activity was determined by measuring the bilirubin formation using the difference in absorbance at 464–530 nm, as described by Ryter et al.. A final volume of 500 μL of incubation mixtures contained 20 mM Tris–HCl, pH 7.4, (1 mg/mL) microsomal extract, 0.5–2 mg/mL biliverdin reductase, 1 mM NADPH, 2 mM glucose 6-phosphate (G6P), 1 U G6P dehydrogenase, 25 μM hemin, and 10 μL of DMSO (or the same volume of DMSO solution of test compounds to a final concentration of 100, 10, and 1 μM). Enzymatic reactions were carried out in the dark for 60 min at 37 °C in a circulating water bath. The reactions were stopped by the addition of 500 μL of chloroform. After recovering the chloroform phase, the amount of bilirubin formed was measured with a double-beam spectrophotometer as OD464–530 nm (extinction coefficient, 40 mM/cm^−1 for bilirubin). The enzymatic activity was defined as Units (one Unit is the amount of enzyme catalyzing the formation of 1 nmol of bilirubin/mg protein/h).

[3] = system: K562-S cells; experiment: In vitro cytotoxicity, NIL-sensitive K562 cells (trypan blue / XTT); type: cell-based; settings: 0.5 and 5 μM, 48 h
Method: K562 cells (CCL-243 ATCC) were cultured in RPMI 1640 (L0500, Biowest, Riverside, MO, USA) supplemented with 10% Fetal Bovine Serum (FBS) and 1% penicillin–streptomycin and incubated at 37 °C in 5% CO2. K562 cells were seeded at a concentration of 1 × 10^5 cells/mL of culture medium. […] Briefly, cells were harvested by centrifugation and resuspended in 5 mL of fresh medium; then an aliquot of 10 μL was taken and mixed with Trypan Blue (93595, Sigma-Aldrich, Milan, Italy) stain (1:1). The mixture was applied on a counting chamber, and cells were counted on a binocular microscope. […] Once resistance was established (after approximately 9 months), K562-R and K562-S were treated with compounds at different concentrations.
Treatments were maintained for 48 h, and then cell viability was assessed: (a) with 0.2% (final concentration) trypan blue dye exclusion analysis which is used to determine the number of viable cells present in a cell suspension and (b) with XTT assay.
• (a) Briefly, the cell number was determined by counting the viable cells in a Burker counting chamber divided into 16 fields of 1 mm^2. […]

[4] = experimental HO-1 IC50 repeated in Table 3, read-out: IC50
[5] = rat spleen microsomal fraction, read-out: HO-1 IC50 (μM) ± SD

Chain of BCR-ABL kinase (P00519 whole entry): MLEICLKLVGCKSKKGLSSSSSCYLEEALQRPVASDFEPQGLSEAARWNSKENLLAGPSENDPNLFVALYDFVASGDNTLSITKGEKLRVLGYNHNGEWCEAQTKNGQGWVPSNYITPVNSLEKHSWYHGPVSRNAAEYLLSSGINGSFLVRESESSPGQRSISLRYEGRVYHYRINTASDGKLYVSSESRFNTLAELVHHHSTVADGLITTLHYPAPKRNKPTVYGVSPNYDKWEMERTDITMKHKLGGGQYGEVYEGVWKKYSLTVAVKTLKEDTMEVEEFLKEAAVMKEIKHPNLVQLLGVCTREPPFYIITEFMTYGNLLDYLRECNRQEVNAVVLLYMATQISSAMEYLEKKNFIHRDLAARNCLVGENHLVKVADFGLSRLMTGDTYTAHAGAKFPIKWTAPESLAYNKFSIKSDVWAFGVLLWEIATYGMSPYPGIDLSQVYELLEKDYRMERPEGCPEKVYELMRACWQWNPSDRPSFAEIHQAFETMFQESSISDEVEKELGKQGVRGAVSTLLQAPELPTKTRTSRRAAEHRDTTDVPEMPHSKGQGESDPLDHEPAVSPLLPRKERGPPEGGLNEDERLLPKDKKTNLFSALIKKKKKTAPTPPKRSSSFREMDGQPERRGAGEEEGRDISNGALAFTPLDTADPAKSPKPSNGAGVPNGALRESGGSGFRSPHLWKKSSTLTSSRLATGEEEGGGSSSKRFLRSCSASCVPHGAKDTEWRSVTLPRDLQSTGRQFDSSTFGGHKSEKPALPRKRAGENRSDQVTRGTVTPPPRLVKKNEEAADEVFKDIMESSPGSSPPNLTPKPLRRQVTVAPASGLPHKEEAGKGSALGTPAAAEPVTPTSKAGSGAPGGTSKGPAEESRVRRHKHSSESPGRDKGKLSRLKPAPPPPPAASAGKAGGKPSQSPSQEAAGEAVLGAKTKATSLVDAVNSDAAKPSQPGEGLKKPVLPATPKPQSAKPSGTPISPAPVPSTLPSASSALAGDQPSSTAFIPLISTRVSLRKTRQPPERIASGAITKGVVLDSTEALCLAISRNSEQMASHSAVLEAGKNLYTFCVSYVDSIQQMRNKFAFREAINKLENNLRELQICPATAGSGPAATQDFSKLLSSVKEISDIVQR

Compound	IC50 [1] [µM]	IC50 [2, 4] [µM]	IC50 [2, 5] [µM]	melting point [°C]	K562-S cell viability [3]	IC50 ([2]; rat spleen microsomal fraction, read-out: HO-1 IC50) [µM]
Cc1ccc(C(=O)Nc2ccc(OCCCCn3ccnc3)cc2)cc1Nc1nccc(-c2cccnc2)n1 [Compound 1a, N-(4-(4-(1H-imidazol-1-yl)butoxy)phenyl)-4-methyl-3-((4-(pyridin-3-yl)pyrimidin-2-yl)amino)benzamide]	0.109 ± 0.0016	44.8	44.8 ± 2.58	140 to 142		
Cc1ccc(C(=O)Nc2cccc(OCCCCn3ccnc3)c2)cc1Nc1nccc(-c2cccnc2)n1 [Compound 1b, N-(3-(4-(1H-imidazol-1-yl)butoxy)phenyl)-4-methyl-3-((4-(pyridin-3-yl)pyrimidin-2-yl)amino)benzamide]	4.19 ± 0.16	64.6	64.6 ± 0.69	118 to 120		
Cc1ccc(C(=O)Nc2ccccc2OCCCCn2ccnc2)cc1Nc1nccc(-c2cccnc2)n1 [Compound 1c, N-(2-(4-(1H-imidazol-1-yl)butoxy)phenyl)-4-methyl-3-((4-(pyridin-3-yl)pyrimidin-2-yl)amino)benzamide]	14.6 ± 0.283	149	149 ± 8.1			
Cc1ccc(C(=O)Nc2cc(OCCCCn3ccnc3)ccc2Br)cc1Nc1nccc(-c2cccnc2)n1 [Compound 1d, N-(5-(4-(1H-imidazol-1-yl)butoxy)-2-bromophenyl)-4-methyl-3-((4-(pyridin-3-yl)pyrimidin-2-yl)amino)benzamide]	16.2 ± 0.208	116	116 ± 5.24	69.8 to 72		
Cc1ccc(C(=O)Nc2ccc(OCCCCn3ccnc3)c(Br)c2)cc1Nc1nccc(-c2cccnc2)n1 [Compound 1e, N-(4-(4-(1H-imidazol-1-yl)butoxy)-3-bromophenyl)-4-methyl-3-((4-(pyridin-3-yl)pyrimidin-2-yl)amino)benzamide]	0.037 ± 0.0012	55.1	55.1 ± 0.71			
Cc1ccc(C(=O)Nc2ccc(Br)c(OCCCCn3ccnc3)c2)cc1Nc1nccc(-c2cccnc2)n1 [Compound 1f, N-(3-(4-(1H-imidazol-1-yl)butoxy)-4-bromophenyl)-4-methyl-3-((4-(pyridin-3-yl)pyrimidin-2-yl)amino)benzamide]	5.21 ± 0.224	100	100 ± 3.29			
Cc1ccc(C(=O)Nc2cc(Br)cc(OCCCCn3ccnc3)c2)cc1Nc1nccc(-c2cccnc2)n1 [Compound 1g, N-(3-(4-(1H-imidazol-1-yl)butoxy)-5-bromophenyl)-4-methyl-3-((4-(pyridin-3-yl)pyrimidin-2-yl)amino)benzamide]	0.077 ± 0.0036	51	51 ± 0.99	162 to 164.4	significant reduction; also recorded: cytotoxic properties similar to NIL and IM	
Cc1ccc(C(=O)Nc2cc(OCCCCn3ccnc3)cc(C(F)(F)F)c2)cc1Nc1nccc(-c2cccnc2)n1 [Compound 1h, N-(3-(4-(1H-imidazol-1-yl)butoxy)-5-(trifluoromethyl)phenyl)-4-methyl-3-((4-(pyridin-3-yl)pyrimidin-2-yl)amino)benzamide]	0.77 ± 0.042	65.4	65.4 ± 1.39	180.3 to 182.5	significant reduction; also recorded: cytotoxic properties similar to NIL and IM	
Cc1ccc(C(=O)Nc2ccc(Br)cc2OCCCCn2ccnc2)cc1Nc1nccc(-c2cccnc2)n1 [Compound 1i, N-(2-(4-(1H-imidazol-1-yl)butoxy)-4-bromophenyl)-4-methyl-3-((4-(pyridin-3-yl)pyrimidin-2-yl)amino)benzamide]	13.7 ± 0.139	83.4	83.4 ± 2.3	94 to 96		
Cc1ccc(OCCCCn2ccnc2)c(NC(=O)c2ccc(C)c(Nc3nccc(-c4cccnc4)n3)c2)c1 [Compound 1j, N-(2-(4-(1H-imidazol-1-yl)butoxy)-5-methylphenyl)-4-methyl-3-((4-(pyridin-3-yl)pyrimidin-2-yl)amino)benzamide]	5.45 ± 0.223	3060	3060 ± 201			~3000
